Measurements from patent US5789416A, “N^6 mono heterocyclic substituted adenosine derivatives” (CV Therapeutics, priority 1996, dated 1998).
Like-named read-outs stand apart in the source and are kept apart here.

Experiments:
Assay type in all cases: cell-based
[1] = target: T1, adenosine A1 receptor (Mesocricetus auratus, UniProt A0A1U8BVR4); assay: A1 receptor mediated inhibition of isoproterenol stimulated cAMP accumulation in DDT cells; details: DDT cells; inhibition of isoproterenol stimulated cAMP accumulation (A1 agonism)
T1 construct: endogenous in cells
T1 sequence (A0A1U8BVR4 1-326): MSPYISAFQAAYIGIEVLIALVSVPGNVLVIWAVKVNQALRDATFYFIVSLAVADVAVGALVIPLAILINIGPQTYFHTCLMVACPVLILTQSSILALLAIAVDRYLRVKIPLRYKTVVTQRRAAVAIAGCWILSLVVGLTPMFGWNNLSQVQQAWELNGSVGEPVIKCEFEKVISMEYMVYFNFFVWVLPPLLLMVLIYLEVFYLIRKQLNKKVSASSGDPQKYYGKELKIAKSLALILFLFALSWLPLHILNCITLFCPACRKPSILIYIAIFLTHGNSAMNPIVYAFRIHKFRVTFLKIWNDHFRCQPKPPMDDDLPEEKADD
Excerpt: (§1) The first was the A1 receptor mediated inhibition of isoproterenol stimulated cAMP accumulation in DDT cells. The EC50 of each derivative is shown in Table I. Also shown in Table I is the ability of each derivative to stimulate cAMP production in PC12 cells, a function of agonist stimulation of adenosine A2 receptors. The ratio of the relative potency of each compound in stimulating either an A1 receptor or an A2 receptor effect is termed the selectivity of each compound for the A1 receptor.

[2] = tested on: adenosine A1 receptor; assay: as above; details: for A1 /A2: ratio of EC50 in DDT cells (A1) to EC50 in PC12 cells (A2)
Excerpt: as §1

[3] = target: T2, adenosine A2 receptors (Rattus norvegicus, UniProt P30543); assay: stimulation of cAMP production in PC12 cells (adenosine A2 receptor agonist function); details: stimulation of cAMP production (A2 agonism)
T2 construct: stimulate cAMP production in PC12 cells, a function of agonist stimulation of adenosine A2 receptors; endogenous in cells; host or cells: PC12 cells
Experimental: Compounds of this invention prepared according to the method of Example 1 were tested in two functional models specific for adenosine A1 receptor agonist function. The first was the A1 receptor mediated inhibition of isoproterenol stimulated cAMP accumulation in DDT cells. The EC50 of each derivative is shown in Table I. Also shown in Table I is the ability of each derivative to stimulate cAMP production in PC12 cells, a function of agonist stimulation of adenosine A2 receptors. The ratio of the relative potency of each compound in stimulating either an A1 receptor or an A2 receptor effect is termed the selectivity of each compound for the A1 receptor. […] The use of measuring cAMP metabolism as an assay for adenosine A1 receptor function has been previously described (Scammells, P., Baker, S., Belardinelli, L., and Olsson, R., 1994, Substituted 1,3-dipropylxanthines as irreversible antagonists of A1 adenosine receptors. J. Med. Chem 37: […], 1994).

[4] = ratio of EC50 in PC12 cells (A2) to EC50 in DDT cells (A1), A1 selectivity

T2 sequence (P30543 whole entry): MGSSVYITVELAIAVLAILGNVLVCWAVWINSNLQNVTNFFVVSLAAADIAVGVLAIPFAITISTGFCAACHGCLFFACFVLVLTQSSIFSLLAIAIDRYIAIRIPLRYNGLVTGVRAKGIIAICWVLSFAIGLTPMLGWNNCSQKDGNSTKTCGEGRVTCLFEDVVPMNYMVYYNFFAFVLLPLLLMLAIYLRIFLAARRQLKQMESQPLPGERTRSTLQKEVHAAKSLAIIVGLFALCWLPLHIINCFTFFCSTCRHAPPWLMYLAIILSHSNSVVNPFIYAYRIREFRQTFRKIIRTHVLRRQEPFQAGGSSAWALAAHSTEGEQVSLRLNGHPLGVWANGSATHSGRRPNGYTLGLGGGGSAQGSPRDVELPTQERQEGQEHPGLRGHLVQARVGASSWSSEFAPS

In the case of `OC[C@H]1O[C@@H](n2cnc3c(N[C@H]4CCOC4)ncnc32)[C@H](O)[C@@H]1O` [V, 6-(3-(S)-aminotetrahydrofuranyl)purine Riboside], the EC50 [1] is reported as 3.4 nM, the “A1 /A2” value [2] is reported as 0.00044 and the “A2 /A1” value [2, 4] is reported as 2258. The EC50 [3] was 7680 nM.

In the case of `OC[C@H]1O[C@@H](n2cnc3c(N[C@@H]4CCOC4)ncnc32)[C@H](O)[C@@H]1O` [III], the EC50 [1] is reported as 1.08 nM, the “A1 /A2” value [2] is reported as 0.0024 and the “A2 /A1” value [2, 4] is reported as 414. It also gave an EC50 [3] of 448 nM.

In the case of `OC[C@H]1O[C@@H](n2cnc3c(NC4CCOCC4)ncnc32)[C@H](O)[C@@H]1O` [I, 6-(4-aminopyran)-purine Riboside], the EC50 [1] is reported as 12 nM, the “A2 /A1” value [2] is reported as 80.0 and the “A1 /A2” value [2] is reported as 0.012. For the same compound, the EC50 [3] was 970 nM.

In the case of `O=C1NCCCC[C@@H]1Nc1ncnc2c1ncn2[C@@H]1O[C@H](CO)[C@@H](O)[C@H]1O` [IV], the EC50 [1] is reported as 161 nM, the “A1 /A2” value [2] is reported as 0.889 and the “A2 /A1” value [2, 4] is reported as 1.12. It also gave an EC50 [3] of 181 nM.

With `OC[C@H]1O[C@@H](n2cnc3c(NC4CCOC4)ncnc32)[C@H](O)[C@@H]1O` (some centres unmarked) [II, 6-(3-aminotetrahydrofuranyl)purine Riboside] the EC50 [1] was 13 nM, the “A1 /A2” value [2] was 0.0093 and the “A2 /A1” value [2, 4] was 107.6. It also gave an EC50 [3] of 1400 nM.
